These results are taken from patent publication US20240336610A1, “3CL PROTEASE SMALL-MOLECULE INHIBITOR FOR TREATING OR PREVENTING CORONAVIRUS INFECTION, AND USE THEREOF” (THE GLOBAL HEALTH DRUG DISCOVERY INSTITUTE, priority 2021, published 2024).

Where a name gives a salt, the structure may show the parent alone. Read-outs that look alike come from different tables or passages of the source.

Data set [1] has as its system SARS-CoV-2. Put plainly: SARS-CoV-2/Hela-ACE test. The data set is classed as cell-based. Conditions: read-out: SAR-CoV-2 EC50.
Data set [2] is described as follows: Toxicity testing in uninfected cells. The data set is classed as cell-based. The settings on record: human, uninfected Hela-ACE cells, Cell-Titer Glo. On the procedure:
(§1) Toxicity Testing in Uninfected Cells
(§2) The compound was transferred to a 1536-well plate (Corning No. 9006BC), and then Hela-ACE cells were added (cell density: 600 cells/5 microliter of medium MEM with 2% FBS). After the assay plate was incubated at 37° C. in 5% CO2 for 48 hours, cell viability was tested. 2 μL of 50% Cell-Titer Glo (Promega No G7573) was diluted in water and added to a cell assay plate, and then a value on En Vision Plate Reader (Perkin Elmer) was read.

Data set [3] has as its target SARS-CoV-2 main protease (3CLpro) (Severe acute respiratory syndrome coronavirus 2 (2019-nCoV) (SARS-CoV-2), UniProt P0DTD1). Description: Enzyme activity test. It counts as biochemical. The settings on record: 200 nM recombinant SARS-CoV-2 main protease, 15 μM fluorescent substrate, pH 7.3.
Data set [4] can be described thus: Oral pharmacokinetics in rats. Conditions: rat, blood, male SD rats, 15 mg/kg. The data set is classed as in vivo. The procedure:
Test Example 2: Measurement of Oral Pharmacokinetics in Rats
Male SD rats were orally administered with 15 mg/kg of the compound in the examples of the present disclosure, and blood samples were collected at 0.083, 0.25, 0.5, 1, 2, 4, and 8 hours respectively. After the samples were treated with anticoagulant EDTA-K2 and acetonitrile and centrifuged, a drug concentration analysis was conducted using LC/MS/MS.

The test system of data set [5] is Hela-ACE cells. Put plainly: Toxicity testing in uninfected cells. The data set is classed as cell-based. The settings on record: 48 hours, Cell-Titer Glo. The procedure: as §1, §2
Where [6] appears, read: Severe acute respiratory syndrome coronavirus 2, Hela-ACE cells infected with SARS-CoV-2 (USA-WA1/2020), 48 hours.
Setting [7] is: Severe acute respiratory syndrome coronavirus 2, 48 h.

Usually EC50 stands for the concentration that produces a half-maximal response. What is called CC50 is the concentration that lowers cell viability or growth by half. A high value points to lower toxicity to the cells. As usually defined, the IC50 is the concentration needed to halve the response being measured. In general, AUC(0-inf) refers to total exposure, with the tail of the curve extrapolated. What is called AUC(0-t) is exposure summed from dosing to a finite time, without extrapolation to infinity. One may read the Cmax as the highest concentration seen after dosing. A word on the half-life: it is the time in which the quantity being followed falls by half. Read a low half-life as fast loss.

Consider `CC(C)(C)OC(=O)NC(C(=O)N1C[C@H]2[C@@H]([C@H]1C(=O)NC(C#N)c1cncc(Br)c1)C2(C)C)C(C)(C)C` (some centres unmarked) [GDI-001], for which the EC50 in data set [1] (setting [6]) worked out at 462 nM. The CC50 at 48 h in data set [2] is above 39800 nM. The 50% inhibitory concentration (IC50) in data set [3] was determined as 80 nM. In data set [4], this compound gave an AUC(0-inf) of 1830 ng·h/mL, an AUC(0-t) of 1810 ng·h/mL, a Cmax of 630 ng/mL and a half-life of 140 min.
Take `CC(C)(C)[C@H](N)C(=O)N1C[C@H]2[C@@H]([C@H]1C(=O)NC(C#N)c1cncc(Br)c1)C2(C)C` (stereo partly drawn) [GDI-002, (1R,2S,5S)-3-((S)-2-amino-3,3-dimethylbutyryl)-N-((5-bromopyridin-3-yl)(cyano)methyl)-6,6-dimethyl-3-azabicyclo[3.1.0]he xane-2-carboxamide formate]: the EC50 in data set [1] (setting [7]) came out at 7860 nM. In addition, the 50% cytotoxic concentration (CC50) at 48 h in data set [2] was above 39800 nM. The IC50 in data set [3] was 320 nM.
On to `CC(=O)N[C@H](C(=O)N1C[C@H]2[C@@H]([C@H]1C(=O)NC(C#N)c1cncc(Br)c1)C2(C)C)C(C)(C)C` (stereo partly drawn) [GDI-003, (1R,2S,5S)-3-((S)-2-acetamido-3,3-dimethylbutyryl)-N-((5-bromopyridin-3-yl)(cyano)methyl)-6,6-dimethyl-3-azabicyclo[3.1.0]he xane-2-carboxamide], for which the EC50 in data set [1] (setting [6]) came out at 1250 nM. For the same compound, in data set [2], the CC50 at 48 h is above 39800 nM. For the same compound, the IC50 in data set [3] stood at 50 nM.
Taken in the same sequence, the figures for `CC(=O)N[C@H](C(=O)N1C[C@H]2[C@@H]([C@H]1C(=O)NC(C#N)c1cncc(C)c1)C2(C)C)C(C)(C)C` (stereo partly drawn) [GDI-005, (1R,2S,5S)-3-((S)-2-acetamido-3,3-dimethylbutyryl)-N-(cyano(5-methylpyridin-3-yl)methyl)-6,6-dimethyl-3-azabicyclo[3.1.0]hex ane-2-carboxamide] were 117 nM, above 39800 nM and 80 nM.
`CC(=O)N[C@H](C(=O)N1C[C@H]2[C@@H]([C@H]1C(=O)NC(C#N)c1cncc3ccccc13)C2(C)C)C(C)(C)C` (stereo partly drawn) [GDI-006, (1R,2S,5S)-3-((S)-2-acetamido-3,3-dimethylbutyryl)-N-(cyano(isoquinolin-4-yl)methyl)-6,6-dimethyl-3-azabicyclo[3.1.0]hexane-2-carboxamide]: the concentration giving a half-maximal response (EC50) in data set [1] (setting [6]) was found to be 28 nM. The CC50 at 48 h in data set [2] was above 39800 nM. Besides, the half-maximal inhibitory concentration (IC50) in data set [3] was 28 nM. In addition, in data set [4], the AUC(0-inf) was 1700 ng·h/mL, the exposure AUC(0-t) is 1690 ng·h/mL, the highest level (Cmax) was 2170 ng/mL and the half-life is 52.5 min.
On to `CC(=O)N[C@H](C(=O)N1C[C@H]2[C@@H]([C@H]1C(=O)NC(C#N)c1cncc(C(F)(F)F)c1)C2(C)C)C(C)(C)C` (stereo partly drawn) [GDI-007, (1R,2S,5S)-3-((S)-2-acetamido-3,3-dimethylbutanol)-N-(cyano(5-(trifluoromethyl)pyridin-3-yl)methyl)-6,6-dimethyl-3-azabicyclo [3.1.0]hexane-2-carboxamide], for which, in data set [1] (setting [6]), the EC50 worked out at 512 nM. The CC50 at 48 h in data set [2] is above 39800 nM. Further, the IC50 in data set [3] stood at 170 nM.
Taken in the same sequence, the figures for `COc1cncc(C(C#N)NC(=O)[C@@H]2[C@@H]3[C@H](CN2C(=O)[C@@H](NC(C)=O)C(C)(C)C)C3(C)C)c1` (stereo partly drawn) [GDI-008, (1R,2S,5S)-3-((S)-2-acetamido-3,3-dimethylbutyryl)-N-(cyano(5-methoxypyridin-3-yl)methyl)-6,6-dimethyl-3-azabicyclo[3.1.0]he xane-2-carboxamide] were 417 nM, above 39800 nM and 37 nM.
For `CC(=O)N[C@H](C(=O)N1C[C@H]2[C@@H]([C@H]1C(=O)NC(C#N)c1cncc(C#N)c1)C2(C)C)C(C)(C)C` (stereo partly drawn) [GDI-010, (1R,2S,5S)-3-((S)-2-acetamido-3,3-dimethylbutyryl)-N-(cyano(5-cyanopyridin-3-yl)methyl)-6,6-dimethyl-3-azabicyclo[3.1.0]hexane-2-carboxamide], in that order: 5720 nM, above 39800 nM and 330 nM.
On to `CC(C)(C)[C@H](NC(=O)C(F)(F)F)C(=O)N1C[C@H]2[C@@H]([C@H]1C(=O)NC(C#N)c1cncc(Br)c1)C2(C)C` (stereo partly drawn) [GDI-011, (1R,2S,5S)-N-((5-bromopyridin-3-yl) (cyano)methyl)-3-((S)-3,3-dimethyl-2-(2,2,2-trifluoroacetylamino)butyryl)-6,6-dimethyl-3-aza bicyclo[3.1.0]hexane-2-carboxamide], for which the EC50 in data set [1] (setting [7]) is 613 nM. The CC50 at 48 h in data set [2] is above 39800 nM. For the same compound, the IC50 in data set [3] was determined as 78 nM. Also, in data set [4], the AUC(0-inf) turned out to be 3470 ng·h/mL, the AUC(0-t) came to 3450 ng·h/mL, the Cmax worked out at 1870 ng/mL and the half-life was 63 min.
For the compound `CC(C)(C)[C@H](NC(=O)C(F)(F)F)C(=O)N1C[C@H]2[C@@H]([C@H]1C(=O)NC(C#N)c1cncc(C#N)c1)C2(C)C` (stereo partly drawn) [GDI-014, (1R,2S,5S)-N-(cyano(5-cyanopyridin-3-yl)methyl)-3-((S)-3,3-dimethyl-2-(2,2,2-trifluoroacetylamino)butyryl)-6,6-dimethyl-3-azabicycl o[3.1.0]hexane-2-carboxamide], the IC50 in data set [3] came out at 46 nM. Besides, in data set [4], the AUC(0-inf) was 7820 ng·h/mL, the AUC(0-t) came out at 7800 ng·h/mL, the Cmax was found to be 5000 ng/mL and the half-life is 49.9 min.
As for `Cc1ccc(S(=O)(=O)N[C@H](C(=O)N2C[C@H]3[C@@H]([C@H]2C(=O)NC(C#N)c2cncc(C(F)(F)F)c2)C3(C)C)C(C)(C)C)cc1` (stereo partly drawn) [GDI-016, (1R,2S,5S)-N-(cyano(5-(trifluoromethyl)pyridin-3-yl)methyl)-3-((S)-3,3-dimethyl-2-((4-methylphenyl)sulfonamido)butanoyl)-6,6-dimet hyl-3-azabicyclo[3.1.0]hexane-2-carboxamide], the EC50 in data set [1] (setting [6]) was 32 nM. This compound registered a CC50 at 48 h in data set [2] above 39200 nM. Besides, the IC50 in data set [3] is 31 nM.
For `CC(=O)N[C@H](C(=O)N1C[C@H]2[C@@H]([C@H]1C(=O)N[C@H](C#N)c1cncc3ccccc13)C2(C)C)C(C)(C)C` [GDI-036], in that order: 20 nM, above 39800 nM and 20 nM.
In the case of `CC(=O)N[C@H](C(=O)N1C[C@H]2[C@@H]([C@H]1C(=O)N[C@@H](C#N)c1cncc3ccccc13)C2(C)C)C(C)(C)C` [GDI-037], the EC50 in data set [1] (setting [6]) is 30 nM. In data set [2], this compound came in with a CC50 at 48 h above 39800 nM. Further, the IC50 in data set [3] was 40 nM.
Take “(1R,2S,5S)-N-(cyano(5-(3-methyl-1,2,4-oxadiazol-5-yl)pyridin-3-yl)methyl)-3-(S)-3,3-dimethyl-2-(2,2,2-trifluoroacetylamino) butyryl)- 6,6-dimethyl-3-azabicyclo[3.1.0]hexane-2-carboxamide [GDI-017]”: the EC50 in data set [1] (Hela-ACE cells infected with SARS-CoV-2 (USA-WA1/2020), 48 hours) amounted to 660 nM. The same compound had a CC50 in data set [5] above 39800 nM. In addition, the IC50 in data set [3] turned out to be 46 nM.
